These results are taken from patent US7659263B2, “Thienopyrrole compound and use thereof as HCV polymerase inhibitor” (Japan Tobacco Inc., priority 2004, dated 2010).

Where a name gives a salt, the structure may show the parent alone.

One assay concerns the target T1, NS5B 1a (Hepatitis C virus genotype 1a, UniProt P27958).
T1 construct: NS5B 1a
In words: Assay of enzyme (HCV polymerase) inhibitory activity, NS5B 1a. In kind it is biochemical. The settings on record: HCV polymerase NS5B 1a; [3H]UTP incorporation, 25° C., 90 min.

The target of the next assay is T2, NS5B 1b (Hepatitis C virus genotype 1b, UniProt P26663).
T2 construct: a region encoding NS5B (J Virol 1991 March, 65(3), 1105-13, 544 amino acids after deletion of 47 amino acids on the C-terminal); 6 His (C); made in house; host or cells: Escherichia coli
T2 sequence (P26663 2420-2963): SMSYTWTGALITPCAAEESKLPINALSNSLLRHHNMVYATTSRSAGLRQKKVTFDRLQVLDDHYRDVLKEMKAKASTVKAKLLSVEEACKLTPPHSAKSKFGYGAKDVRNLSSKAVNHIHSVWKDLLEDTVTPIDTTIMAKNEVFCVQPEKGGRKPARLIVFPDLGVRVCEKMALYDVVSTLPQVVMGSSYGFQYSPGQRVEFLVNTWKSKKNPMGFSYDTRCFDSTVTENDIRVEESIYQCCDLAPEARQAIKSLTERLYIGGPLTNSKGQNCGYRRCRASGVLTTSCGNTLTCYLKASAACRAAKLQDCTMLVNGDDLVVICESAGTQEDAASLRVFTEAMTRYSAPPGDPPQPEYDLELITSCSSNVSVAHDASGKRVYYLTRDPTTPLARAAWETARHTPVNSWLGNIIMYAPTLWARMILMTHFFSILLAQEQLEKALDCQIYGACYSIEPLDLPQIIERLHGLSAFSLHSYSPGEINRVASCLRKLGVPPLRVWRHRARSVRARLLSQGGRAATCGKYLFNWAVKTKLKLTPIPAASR
In words: Assay of enzyme (HCV polymerase) inhibitory activity, NS5B 1b. Type of assay: biochemical. The source says:
The evaluation of the HCV polymerase inhibitory activity of the compound of the present invention is explained in the following. This polymerase is an enzyme coded for by the non-structural protein region called NS5B on the genome RNA of HCV (EMBO J., 15:12-22, 1996).
i) Preparation of enzyme (HCV polymerase)
Using, as a template, a cDNA clone corresponding to the full length genome RNA of HCV BK strain obtained from the blood of a patient with hepatitis C, a region encoding NS5B (J Virol 1991 March, 65(3), 1105-13, 544 amino acids after deletion of 47 amino acids on the C-terminal) was amplified by PCR. The objective gene was prepared by adding a 6 His tag {base pair encoding 6 continuous histidine (His)} to the 3′ end thereof and transformed to Escherichia coli. The Escherichia coli capable of producing the objective protein was cultured. The obtained cells were suspended in a buffer solution and crushed in a microfluidizer. The supernatant was obtained by centrifugation and applied to various column chromatographys {mono-S, Sephacryl S-200 (Pharmacia)}, inclusive of metal chelate chromatography, to give a standard enzyme product.
ii) Synthesis of Substrate RNA
Using a synthetic primer designed based on the sequence of HCV genomic 3′ untranslated region, a DNA fragment (148 bp) containing polyU and 3′X sequence was entirely synthesized and cloned into plasmid pBluescript SK II(+) (Stratagene). The cDNA encoding full length NS5B, which was prepared in i) above, was digested with restriction enzyme KpnI to give a cDNA fragment containing the nucleotide sequence of from the restriction enzyme cleavage site to the termination codon. This cDNA fragment was inserted into the upstream of 3′ untranslated region of the DNA in pBluescript SK II(+) and ligated. The about 450 bp inserted DNA sequence was used as a template in the preparation of substrate RNA. This plasmid was cleaved immediately after the 3′X sequence, linearized and purified by phenol-chloroform treatment and ethanol precipitation to give DNA.
RNA was synthesized (37° C., 3 hr) by run-off method using this purified DNA as a template, a promoter of pBluescript SK II(+), MEGAscript RNA synthesis kit (Ambion) and T7 RNA polymerase. DNase I was added and the mixture was incubated for 1 hr. The template DNA was removed by decomposition to give a crude RNA product. This crude product was treated with phenol-chloroform and purified by ethanol precipitation to give the objective substrate RNA.
This RNA was applied to formaldehyde denaturation agarose gel electrophoresis to confirm the quality thereof and preserved at −80° C. iii) Assay of enzyme (HCV polymerase) inhibitory activity A test substance (compound of the present invention) and a reaction mixture (30 μl) having the following composition were reacted at 25° C. for 90 min.
10% Trichloroacetic acid at 4° C. and 1% sodium pyrophosphate solution (150 μl) were added to this reaction mixture to stop the reaction. The reaction mixture was left standing in ice for 15 min to insolubilize RNA. This RNA was trapped on a glass filter (Whatman GF/C and the like) upon filtration by suction. This filter was washed with a solution containing 1% trichloroacetic acid and 0.1% sodium pyrophosphate, washed with 90% ethanol and dried. A liquid scintillation cocktail (Packard) was added and the radioactivity of RNA synthesized by the enzyme reaction was measured on a liquid scintillation counter.
The HCV polymerase inhibitory activity (IC50) of the compound of the present invention was calculated from the values of radioactivity of the enzyme reaction with and without the 20 test substance. […]

As a reminder, the IC50 is the concentration at which inhibition is half-maximal. Higher therefore signals lower potency.

T1 sequence (P27958 2421-3011): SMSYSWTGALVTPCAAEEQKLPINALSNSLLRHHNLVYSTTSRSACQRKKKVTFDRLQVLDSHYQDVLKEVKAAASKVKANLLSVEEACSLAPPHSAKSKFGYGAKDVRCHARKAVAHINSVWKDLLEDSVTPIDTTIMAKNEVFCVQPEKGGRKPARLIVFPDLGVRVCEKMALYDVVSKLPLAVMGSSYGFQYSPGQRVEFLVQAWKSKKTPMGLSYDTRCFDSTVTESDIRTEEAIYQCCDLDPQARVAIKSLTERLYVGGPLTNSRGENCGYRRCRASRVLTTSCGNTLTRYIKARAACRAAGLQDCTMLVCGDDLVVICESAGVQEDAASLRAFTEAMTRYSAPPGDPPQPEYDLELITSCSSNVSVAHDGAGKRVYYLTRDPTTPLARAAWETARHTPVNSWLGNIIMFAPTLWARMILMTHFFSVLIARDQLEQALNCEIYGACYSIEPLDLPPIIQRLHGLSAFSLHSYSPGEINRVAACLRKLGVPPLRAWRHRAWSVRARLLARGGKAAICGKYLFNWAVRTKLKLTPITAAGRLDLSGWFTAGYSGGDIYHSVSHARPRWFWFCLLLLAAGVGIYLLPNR

With `Cc1ccc2c(c1)N(CCN1CCCC(C)C1)CCn1c-2c(C2CCCCC2)c2sc(C(=O)O)cc21` (stereo not drawn) [Example 26, 11-cyclohexyl-8-methyl-6-[2-(3-methylpiperidin-1-yl)ethyl]-5,6-dihydro-4H-1-thia-3b,6-diazabenzo[e]cyclopenta[a]azulene-2-carboxylic acid dihydrochloride], the IC50 against NS5B 1a and against NS5B 1b was 0.01 to 0.1 µM each time.

For `Cc1ccc2c(c1)N(C)CCn1c-2c(C2CCCCC2)c2sc(C(=O)NC3(C(=O)Nc4ccc(/C=C/C(=O)O)cc4)CCC3)cc21` [Example 38, (E)-3-[4-({1-[(11-cyclohexyl-6,8-dimethyl-5,6-dihydro-4H-1-thia-3b,6-diazabenzo[e]cyclopenta[a]azulene-2-carbonyl)amino]cyclobutanecarbonyl)amino)phenyl]acrylic acid], the IC50 against NS5B 1a and at NS5B 1b was 0.01 to 0.1 µM throughout.

`O=C(O)c1cc2c(s1)c(C1CCCCC1)c1n2CCOc2c-1cccc2N(CCN1CCOCC1)CCN1CCOCC1` [Example 46, 7-{bis[2-(morpholin-4-yl)ethyl]amino}-1l-cyclohexyl-4,5-dihydro-6-oxa-1-thia-3b-azabenzo[e]cyclopenta[a]azulene-2-carboxylic acid trihydrochloride]: the half-inhibitory concentration (IC50) at NS5B 1a is 0.01 to 0.1 µM; against NS5B 1b, less than 0.01 µM.
